pIC50, pKi: −log10 of the molar value. Structures can show the parent of a compound that is named as a salt.
What was measured:
Lectin Pathway = Lectin Pathway Activation Assay in Human Serum (mannan-coated ELISA, C3c detection); type: biochemical; details: 1% human serum
Protocol: Microtiter ELISA plate was coated with mannan from Saccharomyces cerevisiae (Sigma-Aldrich, M7504) for overnight at 4° C. in coating buffer [15 mM Na2CO3, 35 mM NaHCO3].

MASP-2 (CCP1-CCP2-SP) = MASP-2 (CCP1-CCP2-SP) (Homo sapiens (Human), UniProt O00187); experiment: Enzymatic Assay for MASP-2 (fluorogenic substrate); type: biochemical
Sequence of MASP-2 (CCP1-CCP2-SP) (O00187 445-686): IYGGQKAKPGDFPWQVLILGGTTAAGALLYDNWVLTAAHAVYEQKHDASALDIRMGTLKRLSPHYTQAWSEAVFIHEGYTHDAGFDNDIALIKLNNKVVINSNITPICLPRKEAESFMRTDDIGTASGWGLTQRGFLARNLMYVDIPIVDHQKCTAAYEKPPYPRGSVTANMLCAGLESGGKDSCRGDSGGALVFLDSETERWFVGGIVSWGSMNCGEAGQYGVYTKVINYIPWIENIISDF

MASP-2 CCP2-SP = MASP-2 CCP2-SP (Homo sapiens (Human), UniProt O00187); experiment: MASP-2 co-crystallization, X-ray crystallography and structure analysis (H-bonds, van der Waals contacts); design: van der Waals contact distance, MASP-2 HIS 483 atom CD2 / van der Waals contact distance, MASP-2 HIS 483 atom NE2 / van der Waals contact distance, SER 654 C to compound atom / van der Waals contact distance, SER 654 O to compound atom / van der Waals contact distance, TRP 655 C to compound atom / van der Waals contact distance, MASP-2 GLY 528 atom CA / van der Waals contact distance TRP 655 atom CZ3 / van der Waals contact distance TRP 655 atom N / van der Waals contact distance TRP 655 atom CE3 / van der Waals contact distance GLY 656 atom C / van der Waals contact distance GLY 656 atom CA / van der Waals contact distance GLY 656 atom O / van der Waals contact distance, MASP-2 TYR 607 atom CD1 / van der Waals contact distance, MASP-2 PRO 606 atom O / d(C3,CA1) / d(CA1,N1)2 / d(H4,O1) / d(H4,O2) / d(O1,O2) / d(CA1,O2) / d(CA6,O1) / d(CA6,O2) / d(CA1,C5) / d(O2,H3) / d(N2,C2) / d(CA5,N2) / d(N2,C4) / d(N2,C6) / d(N2,CA3) / d(N2,O3) / d(O4,H2): unit not given beside the values; details: for H-bond distance to MASP-2 SER 657 atom O: SER 657 O; for van der Waals contact distance GLY 656 atom C: MASP-2 GLY 656 C; for van der Waals contact distance TRP 655 atom CE3: MASP-2 TRP 655 CE3, compound atom in line below; for van der Waals contact distance SER 657 atom C: MASP-2 SER 657 C, columns c12-c13 (inferred);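 on Ligand-pharmacophore element distance, pharmacophore element C2: distance from averaged pharmacophore element to bound ligand; missing value means element absent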;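 on Ligand-pharmacophore element distance, pharmacophore element C3: distance from averaged pharmacophore element to bound ligand; missing value means element absent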;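 on Ligand-pharmacophore element distance, pharmacophore element C4: distance from averaged pharmacophore element to bound ligand; missing value means element absent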;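 on Ligand-pharmacophore element distance, pharmacophore element C5: distance from averaged pharmacophore element to bound ligand; missing value means element absent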
Sequence of MASP-2 CCP2-SP (O00187 445-686): as above
Sequence of MASP-2 CCP2-SP (O00187 364-432 partner): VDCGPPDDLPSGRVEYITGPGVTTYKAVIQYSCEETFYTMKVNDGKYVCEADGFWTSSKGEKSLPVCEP
Procedure, shortened: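 Soaked crystals of recombinant CCP2-SP (E. coli) yield the structures, phased by molecular replacement on 1Q3X pieces. Hydrophobic or nonbonded contacts can also cover atom pairs that are potential hydrogen bonds.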

[1] = Table A5-1 pharmacophore: distance between elements, S2/S1 region
[2] = Table A7-1, between pharmacophore elements of the bound compound
[3] = Table A8-6, nearest protein atom in cell to the left

C[C@H](NC(=O)[C@H]1C[C@H](Cc2ccc(-c3ccccc3)cc2)CN1)C(=O)NCc1cnc2[nH]cc(Cl)c2c1 [compound 1356, (2R,4S)-4-([1,1′-Biphenyl]-4-ylmethyl)-N—((S)-1-(((3-chloro-1H-pyrrolo[2,3-b]pyridin-5-yl)methyl)amino)-1-oxopropan-2-yl)pyrrolidine-2-carboxamide]
pIC50 (Lectin Pathway): 6.30 to 7.30

Cc1cccc(CNC(=O)[C@H](C)NC(=O)[C@H]2C[C@H](Cc3ccccc3)CN2)c1-n1ncnn1 [compound 1437, (2R,4S)-4-Benzyl-N—((S)-1-((3-methyl-2-(2H-tetrazol-2-yl)benzyl)amino)-1-oxopropan-2-yl)pyrrolidine-2-carboxamide]
pKi (MASP-2 (CCP1-CCP2-SP)): 5.60 to 6.30

N=C(N)c1ccc2[nH]c(Cc3ccccn3)nc2c1 [compound 2002, 2-(Pyridin-2-ylmethyl)-1H-benzo[d]imidazole-5-carboximidamide Dihydrochloride]
MASP-2 versus thrombin selectivity (MASP-2 (CCP1-CCP2-SP); +Zn): ++ (+Zn) (5.0 to 25-fold)

CNC(=O)c1ccc2c(=O)n(Cc3ccccc3)c(=O)n(CC(=O)NCc3ccc(C(=N)N)cc3)c2c1 [compound 2018, 3-Benzyl-1-(2-((4-carbamimidoylbenzyl)amino)-2-oxoethyl)-N-methyl-2,4-dioxo-1,2,3,4-tetrahydroquinazoline-7-carboxamide]
H-bond distance to MASP-2 GLN 665 atom OE1 (MASP-2 CCP2-SP; Table A1 (H-Bonds), GLN 665 OE1): 2.56
H-bond distance to MASP-2 GLY 656 atom N (MASP-2 CCP2-SP; Table A1 (H-Bonds), GLY 656 N): 3.26
H-bond distance to MASP-2 SER 628 atom O (MASP-2 CCP2-SP; Table A1 (H-Bonds), SER 628 O): 3.01
H-bond distance to MASP-2 SER 633 atom OG (MASP-2 CCP2-SP; Table A1 (H-Bonds), SER 633 OG): 3.08
H-bond distance to MASP-2 SER 654 atom O (MASP-2 CCP2-SP; Table A1 (H-Bonds), SER 654 O): 2.94
H-bond distance to MASP-2 SER 657 atom O (MASP-2 CCP2-SP; Table A1 (H-Bonds)): 2.84
van der Waals contact distance, MASP-2 HIS 483 atom CD2 (MASP-2 CCP2-SP; Table A2-1): 3.7
van der Waals contact distance, MASP-2 HIS 483 atom NE2 (MASP-2 CCP2-SP; Table A2-1): 3.87
van der Waals contact distance, MASP-2 PHE 529 atom CE2 (MASP-2 CCP2-SP; Table A2-3): 3.68
van der Waals contact distance, MASP-2 amino acid atom to compound atom (MASP-2 CCP2-SP; Table A2-7 continued: CYS 629 (CA)): 3.87
van der Waals contact distance, SER 654 C to compound atom (MASP-2 CCP2-SP; Table A2-11): 3.79
van der Waals contact distance GLY 656 atom C (MASP-2 CCP2-SP; Table A2-13): 3.64
van der Waals contact distance TRP 655 atom CE3 (MASP-2 CCP2-SP; Table A2-13): 3.76
van der Waals contact distance TRP 655 atom N (MASP-2 CCP2-SP; Table A2-13, MASP-2 TRP 655 N): 3.89
van der Waals contact distance GLY 656 atom O (MASP-2 CCP2-SP; Table A2-14, MASP-2 GLY 656 O): 3.3
van der Waals contact distance SER 657 atom C (MASP-2 CCP2-SP; Table A2-14): 3.7
Ligand-pharmacophore element distance, pharmacophore element C2 (MASP-2 CCP2-SP; Table A4-1, element C2): 0
Ligand-pharmacophore element distance, pharmacophore element C3 (MASP-2 CCP2-SP; Table A4-1, element C3): 9.61
Ligand-pharmacophore element distance, pharmacophore element C4 (MASP-2 CCP2-SP; Table A4-1, element C4): 0
Ligand-pharmacophore element distance, pharmacophore element C5 (MASP-2 CCP2-SP; Table A4-1, element C5): 0
Ligand-pharmacophore element distance, pharmacophore element C6 (MASP-2 CCP2-SP; Table A4-1, element C6): 0
Ligand-pharmacophore element distance, pharmacophore element C7 (MASP-2 CCP2-SP; Table A4-1, element C7): 0
Ligand-pharmacophore element distance, pharmacophore element CA1 (MASP-2 CCP2-SP; Table A4-1, element CA1): 0.54
Ligand-pharmacophore element distance, pharmacophore element CA2 (MASP-2 CCP2-SP; Table A4-1, element CA2): 0
Ligand-pharmacophore element distance, pharmacophore element CA3 (MASP-2 CCP2-SP; Table A4-1, element CA3): 0
Ligand-pharmacophore element distance, pharmacophore element CA4 (MASP-2 CCP2-SP; Table A4-1, element CA4): 0
Ligand-pharmacophore element distance, pharmacophore element CA5 (MASP-2 CCP2-SP; Table A4-1, element CA5): 1.25
Ligand-pharmacophore element distance, pharmacophore element CA6 (MASP-2 CCP2-SP; Table A4-1, element CA6): 1.35
d(CA1,N1) (MASP-2 CCP2-SP; [1]): 3.56
d(CA1,O1) (MASP-2 CCP2-SP; [1]): 7.59
d(CA1,O2) (MASP-2 CCP2-SP; [1]): 6.76
d(CA6,O1) (MASP-2 CCP2-SP; [1]): 2.73
d(CA6,O2) (MASP-2 CCP2-SP; [1]): 2.50
d(H4,O1) (MASP-2 CCP2-SP; [1]): 3.89
d(H4,O2) (MASP-2 CCP2-SP; [1]): 5.39
d(O1,O2) (MASP-2 CCP2-SP; [1]): 4.92
d(O2,H3) (MASP-2 CCP2-SP; Table A5-2 pharmacophore distance, S3/S4 region): 9.00
a(CA1, O1, O2) (MASP-2 CCP2-SP; Table A6-1 pharmacophore angle): 100.76
a(O1, CA6, O2) (MASP-2 CCP2-SP; Table A6-1 pharmacophore angle): 159.18
a(O1, O2, H4) (MASP-2 CCP2-SP; Table A6-1 pharmacophore angle): 118.45
A(N1, CA1, O1) a) (MASP-2 CCP2-SP; Table A6-1 pharmacophore angle, all compounds with protonatable center N1 except Methyl-amino-pyridine): 169.37
a(O1, O2, H3) (MASP-2 CCP2-SP; Table A6-2 pharmacophore angle): 154.86
Pharmacophore torsion angle a(CA6, O1, H4, O2) (MASP-2 CCP2-SP; [2]): −9.94
Pharmacophore torsion angle a(H4, O1, O2, H3) (MASP-2 CCP2-SP; [2]): 30.27
Pharmacophore torsion angle a(N1, CA1, O2, H4) (MASP-2 CCP2-SP; [2]): −154.72
Pharmacophore torsion angle a(O1, H4, O2, CA1) (MASP-2 CCP2-SP; [2]): −146.71
Pharmacophore protein distance to MET_658 (first MET_658 column) (MASP-2 CCP2-SP; Table A8-6, 6th residue column, nearest protein atom in cell to the left): 1.58
Pharmacophore protein distance to MET_658 (second MET_658 column) (MASP-2 CCP2-SP; Table A8-6, 9th residue column, nearest protein atom in cell to the left): 2.86
Pharmacophore protein distance to GLY_528 (MASP-2 CCP2-SP; [3]): 3.65
Pharmacophore protein distance to PHE_529 (MASP-2 CCP2-SP; [3]): 2.90
Pharmacophore protein distance to PRO_608 (MASP-2 CCP2-SP; [3]): 3.74
Pharmacophore protein distance to SER_611 (MASP-2 CCP2-SP; [3]): 2.86
Pharmacophore protein distance to TRP_655 (MASP-2 CCP2-SP; Table A8-6, pharmacophore elements C6, CA3, O3, H1, nearest protein atom in cell to the left): 3.77

N=C(N)c1ccc(CNC(=O)[C@@H]2CCN2C(=O)[C@H](NCC(=O)O)C2CCCCC2)cc1 [melagatran, reference compound]
H-bond distance to MASP-2 SER 628 atom OG (MASP-2 CCP2-SP; Table A1 (H-Bonds), SER 628 OG): 2.75
H-bond distance to MASP-2 SER 657 atom O (MASP-2 CCP2-SP; Table A1 (H-Bonds)): 2.84
van der Waals contact distance, MASP-2 TYR 607 atom CD2 (MASP-2 CCP2-SP; Table A2-4): 3.72
van der Waals contact distance, MASP-2 amino acid atom to compound atom (MASP-2 CCP2-SP; Table A2-5: TYR 607 (CE1, CE2, OH), PRO 608 (CD, CG), SER 611 (CA)): 3.67
van der Waals contact distance, MASP-2 amino acid atom to compound atom (MASP-2 CCP2-SP; Table A2-9, ARG 630, AA atoms CG, CZ): 3.8
van der Waals contact distance GLY 656 atom C (MASP-2 CCP2-SP; Table A2-13): 3.42
van der Waals contact distance TRP 655 atom CE3 (MASP-2 CCP2-SP; Table A2-13): 3.75
van der Waals contact distance TRP 655 atom O (MASP-2 CCP2-SP; Table A2-13, MASP-2 TRP 655 O): 3.39
van der Waals contact distance SER 657 atom C (MASP-2 CCP2-SP; Table A2-14): 3.77
van der Waals contact distance SER 657 atom C (MASP-2 CCP2-SP; Table A2-14, listed as Melagatran): 3.68
